# Source: patent US11285156B2, “Substituted piperazines as KRAS G12C inhibitors” (Amgen Inc., priority 2018, dated 2022)
# Like-named read-outs stand apart in the source and are kept apart here.
# Assays:
# [1] = target: GDP-bound KRAS protein (aa 1-169), containing both G12C and C118A amino acid substitutions (Homo sapiens (Human), UniProt P01116, C118A/G12C); experiment: Coupled nucleotide exchange assay (SOS-mediated nucleotide exchange, AlphaScreen); type: biochemical; settings: read-out: Coupled exchange IC50 (5 min; μM); 5 min compound pre-incubation
# Procedure: Coupled Nucleotide Exchange Assay:
# Following compound pre-incubation, purified SOS protein (aa 564-1049) and GTP (Roche 10106399001) were added to the assay wells and incubated for an additional 30 min (for 5 min compound pre-incubation) or 1 hour (for 2 hour compound pre-incubation). […] The assay plates were then read on a PerkinElmer EnVision Multilabel Reader, using AlphaScreen® technology, and data were analyzed using a 4-parameter logistic model to calculate IC50 values.
# [2] = tested on: Phosphorylation of ERK1/2 in A549 cells; experiment: Phospho-ERK1/2 MSD assay in A549 cells; type: cell-based; settings: read-out: p-ERK IC50 (2 h, A549; μM), 2 h compound treatment, A549 cells, EGF stimulated
# Summary of the method: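 MSD electrochemiluminescent read-out of phospho-ERK1/2 in RIPA lysates. Cells in RPMI 1640 with 10% FBS received titrated compound for 2 or 4 h, then 10 ng/mL EGF for 10 min before ice-cold PBS wash and lysis.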
# [3] = tested on: Phosphorylation of ERK1/2 in MIA PaCa-2 cells; experiment: Phospho-ERK1/2 MSD assay in MIA PaCa-2 cells; type: cell-based; settings: read-out: p-ERK IC50 (2 h, MiaPaCa-2; μM), 2 h compound treatment, MIA PaCa-2 cells, EGF stimulated
# Summary of the method: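 Phospho-ERK1/2 measured by MSD electrochemiluminescence kit in RIPA lysates of MIA PaCa-2 cells. Cells were treated with compound titrations for 2 or 4 h at 37 °C, 5% CO2, followed by a 10 min pulse of 10 ng/mL EGF.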
# Sequence of GDP-bound KRAS protein (aa 1-169), containing both G12C and C118A amino acid substitutions (P01116 other isoform, or with tags, fused parts or gaps G12C/C118A): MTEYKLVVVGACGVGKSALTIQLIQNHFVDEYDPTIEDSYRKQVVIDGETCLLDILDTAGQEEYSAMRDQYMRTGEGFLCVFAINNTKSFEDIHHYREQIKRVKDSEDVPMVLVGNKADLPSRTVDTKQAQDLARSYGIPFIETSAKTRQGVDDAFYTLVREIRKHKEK
SMILES,IC50 [1] [µM],"IC50 ([2]; Homo sapiens, A549, 2 h) [µM]","IC50 ([3]; Homo sapiens, MIA PaCa-2, 2 h) [µM]",IC50 [2] [µM],IC50 [3] [µM]
"C=CC(=O)N1C[C@H](C)N(c2nc(=O)n(-c3c(C)ccnc3C(C)C)c3nc(-c4c(F)cccc4NC(=O)C(F)F)c(Cl)cc23)C[C@H]1C (atropisomer, axis not shown; (M)) [Example 129-10, (M)-N-[2-[6-Chloro-4-[(2S,5R)-2,5-dimethyl-4-prop-2-enoyl-piperazin-1-yl]-1-(2-isopropyl-4-methyl-3-pyridyl)-2-oxo-pyrido[2,3-d]pyrimidin-7-yl]-3-fluoro-phenyl]-2,2-difluoro-acetamide]",0.041,> 7.5,0.049,,
"C=CC(=O)N1C[C@H](C)N(c2nc(=O)n(-c3c(C)ccnc3C(C)C)c3nc(-c4ccccc4NC(=O)C(F)F)c(Cl)cc23)C[C@H]1C (atropisomer, axis not shown; (M)) [Example 129-11, (M)-N-[2-[6-Chloro-4-[(2S,5R)-2,5-dimethyl-4-prop-2-enoyl-piperazin-1-yl]-1-(2-isopropyl-4-methyl-3-pyridyl)-2-oxo-pyrido[2,3-d]pyrimidin-7-yl]phenyl]-2,2-difluoro-acetamide]",0.152,> 7.5,0.247,,
"C=CC(=O)N1C[C@H](C)N(c2nc(=O)n(-c3c(C)ccnc3C(C)C)c3nc(-c4cc(O)cc5ccccc45)c(Cl)cc23)C[C@H]1C (atropisomer, axis not shown; (M)) [Example 132-1, (M)-6-Chloro-4-[(2S,5R)-2,5-dimethyl-4-prop-2-enoyl-piperazin-1-yl]-7-(3-hydroxy-1-naphthyl)-1-(2-isopropyl-4-methyl-3-pyridyl)pyrido[2,3-d]pyrimidin-2-one]",0.053,,,> 7.5,0.46
"C=CC(=O)N1CCN(c2nc(=O)n(-c3c(C)ccnc3C(C)C)c3nc(-c4c(N)cccc4F)c(Cl)cc23)CC1CC#N (atropisomer, axis not shown; (M)) [Example 144-1, (M)-2-[4-[7-(2-Amino-6-fluoro-phenyl)-6-chloro-1-(2-isopropyl-4-methyl-3-pyridyl)-2-oxo-pyrido[2,3-d]pyrimidin-4-yl]-1-prop-2-enoyl-piperazin-2-yl]acetonitrile]",0.166,,,> 7.5,0.23
"C=CC(=O)N1CCN(c2nc(=O)n(-c3c(C)ccnc3C(C)C)c3nc(Cl)c(Cl)cc23)CC1CC#N (atropisomer, axis not shown; (M)) [Example 144-2-2, (M)-2-[4-[6,7-Dichloro-1-(2-isopropyl-4-methyl-3-pyridyl)-2-oxo-pyrido[2,3-d]pyrimidin-4-yl]-1-prop-2-enoyl-piperazin-2-yl]acetonitrile]",9.13,4,3.1,,
"C=CC(=O)N1CCN(c2nc(=O)n(-c3c(C)ccnc3C(C)C)c3nc(-c4c(O)cccc4F)c(Cl)cc23)CC1CC#N (atropisomer, axis not shown; (M)) [Example 144-3, (M)-2-[4-[6-Chloro-7-(2-fluoro-6-hydroxy-phenyl)-1-(2-isopropyl-4-methyl-3-pyridyl)-2-oxo-pyrido[2,3-d]pyrimidin-4-yl]-1-prop-2-enoyl-piperazin-2-yl]acetonitrile]",0.166,> 7.5,2.41,,
"C=CC(=O)N1CCN(c2nc(=O)n(-c3c(C)ccnc3C(C)C)c3nc(-c4ccccc4F)c(Cl)cc23)CC1CC#N (atropisomer, axis not shown; (M)) [Example 145-2, (M)-2-[4-[6-Chloro-7-(2-fluorophenyl)-1-(2-isopropyl-4-methyl-3-pyridyl)-2-oxo-pyrido[2,3-d]pyrimidin-4-yl]-1-prop-2-enoyl-piperazin-2-yl]acetonitrile]",0.344,> 7.5,,,1.68
"C=CC(=O)N1CCN(c2nc(=O)n(-c3c(C)ccnc3C(C)C)c3nc(-c4ccccc4F)c(Cl)cc23)CC1CC#N (atropisomer, axis not shown; (M)) [Example 145-2-1, (M)-2-[4-[6-Chloro-7-(2-fluorophenyl)-1-(2-isopropyl-4-methyl-3-pyridyl)-2-oxo-pyrido[2,3-d]pyrimidin-4-yl]-1-prop-2-enoyl-piperazin-2-yl]acetonitrile]",0.294,,,> 7.5,0.356
"C=CC(=O)N1CCN(c2nc(=O)n(-c3c(C)ccnc3C(C)C)c3nc(-c4ccccc4F)c(Cl)cc23)CC1CC#N (atropisomer, axis not shown; (M)) [Example 145-2-2, (M)-2-[4-[6-Chloro-7-(2-fluorophenyl)-1-(2-isopropyl-4-methyl-3-pyridyl)-2-oxo-pyrido[2,3-d]pyrimidin-4-yl]-1-prop-2-enoyl-piperazin-2-yl]acetonitrile]",0.238,,,> 7.5,0.213
"C=CC(=O)N1C[C@H](C)N(c2nc(=O)n3c4nc(c(Cl)cc24)-c2ccccc2C/C=C/Cc2cccc(C(C)C)c2-3)C[C@H]1C (atropisomer, axis not shown; (M)) [Example 146-2, (M)-(9Z)-19-Chloro-22-((2S,5R)-2,5-dimethyl-4-(2-propenoyl)-1-piperazinyl)-3-(2-propanyl)-1,23,26-triazapentacyclo[16.6.2.0~2,7~.0~12,17~.0~21,25~]hexacosa-2,4,6,9,12,14,16,18,20,22,25-undecaen-24-one, (M)-19-chloro-22-((2S,5R)-2,5-dimethyl-4-(2-propenoyl)-1-piperazinyl)-3-(2-propanyl)-1,23,26-triazapentacyclo[16.6.2.0~2,7~.0~12,17~.0~21,25~]hexacosa-2,4,6,9,12,14,16,18,20,22,25-undecaen-24-one]",0.028,6.51,0.038,,
"C=CC(=O)N1CCN(c2nc(=O)n(-c3c(C)ccnc3C(C)C)c3nc(-c4ccccc4F)c(Cl)cc23)C2CC21 (atropisomer, axis not shown; (M)) [Example 222, (M)-4-(5-Acryloyl-2,5-diazabicyclo[4.1.0]heptan-2-yl)-6-chloro-7-(2-fluorophenyl)-1-(2-isopropyl-4-methylpyridin-3-yl)pyrido[2,3-d]pyrimidin-2(1H)-one]",0.705,,,2.71,0.057
"C=CC(=O)N1CCN(c2nc(=O)n(-c3c(C)ccnc3C(C)C)c3nc(-c4ccccc4F)c(Cl)cc23)[C@H]2C[C@H]21 (atropisomer, axis not shown; (M)) [Example 222-2, (M)-4-((1S,6R)-5-acryloyl-2,5-diazabicyclo[4.1.0]heptan-2-yl)-6-chloro-7-(2-fluorophenyl)-1-(2-isopropyl-4-methylpyridin-3-yl)pyrido[2,3-d]pyrimidin-2(1H)-one]",0.014,,,2.52,0.048
"C#Cc1ccc(F)c(-c2nc3c(cc2Cl)c(N2C[C@@H](C)N(C(=O)C=C)C[C@@H]2C)nc(=O)n3-c2c(C)ccnc2C(C)C)c1 (atropisomer, axis not shown; (M)) [Example 226, (M)-6-Chloro-4-[(2S,5R)-2,5-dimethyl-4-prop-2-enoyl-piperazin-1-yl]-7-(5-ethynyl-2-fluoro-phenyl)-1-(2-isopropyl-4-methyl-3-pyridyl)pyrido[2,3-d]pyrimidin-2-one]",0.04,,,> 7.5,0.063
"C=CC(=O)N1C[C@H](C)N(c2nc(=O)n3c4nc(c(Cl)cc24)-c2ccccc2C/C=C\Cc2ccccc2-3)C[C@H]1C (atropisomer, axis not shown; (P)) [Example 146-3]",7.03,> 7.5,,,4.26
